According to publication PMC7570910, “8-Hydroxyquinoline Glycoconjugates Containing Sulfur at the Sugar Anomeric Position—Synthesis and Preliminary Evaluation of Their Cytotoxicity” (Molecules, 2020):

Legend:
Assay type in all cases: cell-based
[1] = tested on: HCT-116 cells; test: MTT cytotoxicity assay, HCT-116; conditions: Homo sapiens, incubation time 24 h, mean ± SD (n = 3)
[2] = tested on: MCF-7 cells; test: MTT cytotoxicity assay, MCF-7; conditions: Homo sapiens, MCF7, incubation time 72 h, mean ± SD (n = 3)
Procedure: (§1) In vitro cytotoxicity studies of the obtained building blocks and glycoconjugates were carried out on cell lines characterized by the high expression of GLUT transporters and the strongly changed glucose metabolism (strong Warburg effect). […] Cytotoxicity was evaluated using the MTT assay.
The human cell line MCF-7 was obtained from collections at the Maria Sklodowska-Curie Memorial Cancer Center and Institute of Oncology, branch in Gliwice, Poland. […] The culture media were purchased from EuroClone and HyClone. Fetal bovine serum (FBS) was delivered by EURx, Poland, and Antibiotic Antimycotic Solution (100×) by Sigma-Aldrich, Germany. The cells were cultured under standard conditions at 37 °C in a humidified atmosphere at 5% CO2.
(§2) The viability of the cells was determined using an MTT (3-[4,5–dimethylthiazol-2-yl]-2,5-diphenyltetrazolium bromide) test (Sigma-Aldrich). Stock solutions of tested compounds were prepared in DMSO and diluted with the appropriate volumes of the growth medium directly before the experiment. […] The cell cultures were incubated for 24 h at 37 °C in a humidified atmosphere of 5% CO2. Then, the culture medium was removed, replaced with the solution of the tested compounds in medium with varying concentrations, and incubated for further 24 h or 72 h. After that, the medium was removed, and the MTT solution (50 µL, 0.5 mg/mL in PBS) was added. After 3 h of incubation, the MTT solution was removed, and the precipitated formazan was dissolved in DMSO. Finally, the absorbance at the 570 nm wavelength was measured spectrophotometrically with the plate reader. The experiment was conducted in at least three independent iterations with four technical repetitions. The IC50 values were calculated using CalcuSyn software (version 2.0, Biosoft, Cambridge, UK).

[3] = tested on: Normal Human Dermal Fibroblasts-Neonatal (NHDF-Neo); test: MTT cytotoxicity assay, NHDF-Neo; conditions: incubation time 24 h, mean ± SD (n = 3)
Procedure: as §1
[…] […] The culture media were purchased from EuroClone and HyClone. Fetal bovine serum (FBS) was delivered by EURx, Poland, and Antibiotic Antimycotic Solution (100×) by Sigma-Aldrich, Germany. The cells were cultured under standard conditions at 37 °C in a humidified atmosphere at 5% CO2.
as §2

[4] = tested on: HCT-116 cells; test: Influence of metal ions on cellular proliferation (MTT with Cu2+), HCT-116; conditions: Homo sapiens, MTT assay, 24 h, addition of copper acetate at 100 µM
Procedure: (§3) Cultured cancer cells, in contrast to in vivo environment, are characterized by a low copper level. Therefore, additional experiments were carried out for compounds whose expected mechanism of action is based on the chelation of metal ions. The antiproliferative activities of glycoconjugates 67, 68, 70, and 71 were tested in the presence of Cu^2+ ions. The effect of the interaction of glycoconjugate complexes with metal ions on cell proliferation was measured by adding a copper salt solution to the growth medium and observing the rate of cell growth compared to copper-untreated cells.
(§4) During the appropriate experiments, the cells (MCF-7, HCT-116, and NHDF-Neo) were treated with solutions of glycoconjugate 67, 68, 70, or 71 in medium culture, supplemented with 100 µM copper acetate, and then their proliferation was measured by the MTT assay. The control system was cells suspended in medium supplemented with DMSO in the amount used to dissolve the compounds and the addition of the same amount of copper. […] The highest cytotoxic activity of the compounds was observed against the MCF-7 cell line. […] This confirmed the strong sensitivity of breast cancer cells to 8-HQ derivatives.
(§5) The cells were seeded into 96-well plates at concentration 1 × 10^4 (HCT 116, NHDF-Neo) or 5 × 10^3 (MCF-7) per well. The cell cultures were incubated for 24 h at 37 °C in a humidified atmosphere of 5% CO2. Then, the culture medium was removed, replaced with the solution of the tested compounds in medium with varying concentrations. Additionally, 100 µM solution of Cu(CH3COO)2 was added into wells with tested compounds. After 24 h or 72 h incubation, the MTT assay was performed.

[5] = tested on: Normal Human Dermal Fibroblasts-Neonatal (NHDF-Neo); test: Influence of metal ions on cellular proliferation (MTT with Cu2+), NHDF-Neo; conditions: MTT assay, 24 h, addition of copper acetate at 100 µM
Procedure: as §3, §4, §5

[6] = tested on: MCF-7 cells; test: Influence of metal ions on cellular proliferation (MTT with Cu2+), MCF-7; conditions: Homo sapiens, MCF7; MTT assay, 72 h, addition of copper acetate at 100 µM
Procedure: as §3, §4
It can be seen that the greatest differences in cell survival occurred in the case of MCF-7 cell lines. A significant decrease in the proliferation of MCF-7 cells was observed after treatment with glycoconjugates at a concentration of 50 µM in the presence of Cu^2+ (cell viability 10–28%), compared to experiments with glycoconjugates alone. In this case, the cytotoxicity of glycoconjugates increased about three-fold in the presence of Cu(II) ions. […] For HCT-116 and NHDF-Neo cell lines, only slight differences in cell viability were observed after treatment with free compounds and when […] ions were added.
as §5

| SMILES | IC50 [1] | IC50 [2] | IC50 [3] | IC50 [4] | IC50 [5] | IC50 [6] |
| --- | --- | --- | --- | --- | --- | --- |
| Cc1ccc2cccc(O)c2n1 [Compound 2Me8HQ, 8-hydroxyquinaldine, reference compound] | > 800 µM | – | – | – | – | – |
| Oc1cccc2cccnc12 [Compound 8HQ, 8-hydroxyquinoline] | > 800 µM | 0.24 ± 0.01 µM | > 800 µM | – | – | – |
| CC(=O)OC[C@H]1O[C@@H](Sc2ccc(NC(=O)CN=[N+]=[N-])cn2)[C@H](OC(C)=O)[C@@H](OC(C)=O)[C@@H]1OC(C)=O [Compound 33, (5-azidoacetamide-2-pyridyl) 2,3,4,6-tetra-O-acetyl-1-thio-β-D-glucopyranoside] | 13.39 ± 0.1 µM | 6.39 ± 0.07 µM | 11.2 ± 0.31 µM | – | – | – |
| CC(=O)OC[C@H]1O[C@@H](Sc2ccc(NC(=O)CN=[N+]=[N-])cn2)[C@H](OC(C)=O)[C@@H](OC(C)=O)[C@H]1OC(C)=O [Compound 34, (5-azidoacetamide-2-pyridyl) 2,3,4,6-tetra-O-acetyl-1-thio-β-D-galactopyranoside] | 541.4 ± 3.73 µM | 383 ± 4.23 µM | – | – | – | – |
| [N-]=[N+]=NCC(=O)Nc1ccc(S[C@@H]2O[C@H](CO)[C@@H](O)[C@H](O)[C@H]2O)nc1 [Compound 35, (5-azidoacetamide-2-pyridyl) 1-thio-β-D-glucopyranoside] | > 800 µM | > 800 µM | – | – | – | – |
| C#CCOC(=O)Nc1ccc(S[C@@H]2O[C@H](COC(C)=O)[C@@H](OC(C)=O)[C@H](OC(C)=O)[C@H]2OC(C)=O)nc1 [Compound 36, (5-(((prop-2-yn-1-yloxy)carbonyl)amino)-2-pyridyl) 2,3,4,6-tetra-O-acetyl-1-thio-β-D-glucopyranoside] | 125 ± 8.98 µM | 38.3 ± 2.44 µM | 41.7 ± 3.4 µM | – | – | – |
| C#CCOC(=O)Nc1ccc(S[C@@H]2O[C@H](COC(C)=O)[C@H](OC(C)=O)[C@H](OC(C)=O)[C@H]2OC(C)=O)nc1 [Compound 37] | 456.7 ± 3.85 µM | 392 ± 5.29 µM | – | – | – | – |
| C#CCOC(=O)Nc1ccc(S[C@@H]2O[C@H](CO)[C@@H](O)[C@H](O)[C@H]2O)nc1 [Compound 38] | > 800 µM | > 800 µM | – | – | – | – |
| CC(=O)OC[C@H]1O[C@@H](SCc2cn(CCCOc3cccc4cccnc34)nn2)[C@H](OC(C)=O)[C@@H](OC(C)=O)[C@@H]1OC(C)=O [Compound 59] | 173 ± 3.48 µM | 153.3 ± 0.25 µM | 229.1 ± 2.06 µM | – | – | – |
| CC(=O)OC[C@H]1O[C@@H](SCc2cn(CCCOc3cccc4cccnc34)nn2)[C@H](OC(C)=O)[C@@H](OC(C)=O)[C@H]1OC(C)=O [Compound 60] | 304.8 ± 1.34 µM | 212 ± 3.46 µM | 421.2 ± 0.14 µM | – | – | – |
| CC(=O)OC[C@H]1O[C@@H](SCc2cn(CCCOc3cccc4ccc(C)nc34)nn2)[C@H](OC(C)=O)[C@@H](OC(C)=O)[C@@H]1OC(C)=O [Compound 61] | 108 ± 1.62 µM | 130.4 ± 0.2 µM | 260 ± 7.65 µM | – | – | – |
| CC(=O)OC[C@H]1O[C@@H](SCc2cn(CCCOc3cccc4ccc(C)nc34)nn2)[C@H](OC(C)=O)[C@@H](OC(C)=O)[C@H]1OC(C)=O [Compound 62] | 324 ± 1.61 µM | 244 ± 3.04 µM | 667.6 ± 6.43 µM | – | – | – |
| OC[C@H]1O[C@@H](SCc2cn(CCCOc3cccc4cccnc34)nn2)[C@H](O)[C@@H](O)[C@@H]1O [Compound 63] | > 800 µM | > 800 µM | – | – | – | – |
| Cc1ccc2cccc(OCCCn3cc(CS[C@@H]4O[C@H](CO)[C@@H](O)[C@H](O)[C@H]4O)nn3)c2n1 [Compound 65] | > 800 µM | > 800 µM | – | – | – | – |
| Cc1ccc2cccc(OCCCn3cc(CS[C@@H]4O[C@H](CO)[C@H](O)[C@H](O)[C@H]4O)nn3)c2n1 [Compound 66] | > 800 µM | > 800 µM | – | – | – | – |
| CC(=O)OC[C@H]1O[C@@H](Sc2ccc(NC(=O)Cn3cc(COc4cccc5cccnc45)nn3)cn2)[C@H](OC(C)=O)[C@@H](OC(C)=O)[C@@H]1OC(C)=O [Compound 67] | 146 ± 3.49 µM | 69.7 ± 3.5 µM | 71.8 ± 6.7 µM | 74.5 ± 0.16 µM | 71.4 ± 1.35 µM | 28.9 ± 1.52 µM |
| CC(=O)OC[C@H]1O[C@@H](Sc2ccc(NC(=O)Cn3cc(COc4cccc5cccnc45)nn3)cn2)[C@H](OC(C)=O)[C@@H](OC(C)=O)[C@H]1OC(C)=O [Compound 68] | 130 ± 1.31 µM | 96.3 ± 5.99 µM | 111 ± 2.78 µM | 96.01 ± 0.59 µM | 83.6 ± 3.03 µM | 23.8 ± 0.48 µM |
| O=C(Cn1cc(COc2cccc3cccnc23)nn1)Nc1ccc(S[C@@H]2O[C@H](CO)[C@@H](O)[C@H](O)[C@H]2O)nc1 [Compound 69] | 210.4 ± 0.55 µM | 144 ± 2.68 µM | 163.81 ± 0.01 µM | – | – | – |
| CC(=O)OC[C@H]1O[C@@H](Sc2ccc(NC(=O)OCc3cn(CCCOc4cccc5cccnc45)nn3)cn2)[C@H](OC(C)=O)[C@@H](OC(C)=O)[C@@H]1OC(C)=O [Compound 70] | 63.5 ± 2.37 µM | 67.5 ± 1.58 µM | 64 ± 5.34 µM | 73.9 ± 2.99 µM | 68.4 ± 1.11 µM | 25.9 ± 1.76 µM |
| CC(=O)OC[C@H]1O[C@@H](Sc2ccc(NC(=O)OCc3cn(CCCOc4cccc5cccnc45)nn3)cn2)[C@H](OC(C)=O)[C@@H](OC(C)=O)[C@H]1OC(C)=O [Compound 71] | 90.68 ± 0.52 µM | 68.3 ± 3.68 µM | 75.26 ± 0.38 µM | 83 ± 1.37 µM | 69.3 ± 2.9 µM | 20.5 ± 1.55 µM |
| O=C(Nc1ccc(S[C@@H]2O[C@H](CO)[C@@H](O)[C@H](O)[C@H]2O)nc1)OCc1cn(CCCOc2cccc3cccnc23)nn1 [Compound 72] | > 800 µM | 739.2 ± 3.79 µM | > 800 µM | – | – | – |
| COc1cccc2c1C(=O)c1c(O)c3c(c(O)c1C2=O)C[C@@](O)(C(=O)CO)C[C@@H]3O[C@H]1C[C@H](N)[C@H](O)[C@H](C)O1 [Doxorubicin, reference compound] | 5.59 ± 0.14 µM | 0.67 ± 0.01 µM | > 20 µM | – | – | – |
